According to PMC3128661 (Bioorganic & medicinal chemistry letters, 2011):

Tests used:
Gram+ bacteria = conditions: ref [4],[7]; cited from earlier work
E. coli (J-53) = conditions: ref [4],[7]; cited from earlier work
VRE = test: MIC determination in 96-well plates; format: cell-based, E. faecium; conditions: Enterococcus, read-out: MIC VRE

SMILES: CCc1cc(Nc2cc(=O)n(CCCCO)c(=O)[nH]2)ccc1C [Compound 1, HB-EMAU]
- MIC values against various organisms (Gram+ bacteria): 2.5 to 5 µg/mL
- activity against the Gram- bacterium E. coli (E. coli (J-53)): inactive

SMILES: CCc1cc(Nc2nc(O)c3ncn(CCCCO)c3n2)ccc1C [Compound 2b]
- MIC (VRE): > 80 µg/mL

SMILES: CCc1cc(Nc2cc3c(ncn3CCCCOC)c(=O)[nH]2)ccc1C [Compound 19b]
- MIC (VRE): > 80 µg/mL

SMILES: CCc1cc(Nc2cc3c(ncn3CCCCN3CCOCC3)c(=O)[nH]2)ccc1C [Compound 21b]
- MIC (VRE): > 80 µg/mL
